# Where “and” joins values, the source holds several entries; their conditions need not be identical. Equal values may be shown once.
# Experiment: Plasma and tissue distribution of Cryptophycin Payload and Cryptophycin Metabolite 1 after Cryptophycin Payload alone or with CTX in PC-3 xenograft nude mice (LC-MS/MS)
# Format: in vivo, mouse
# Procedure: For the present experiment, materials, methods, drugs and model were as described in Example 21. […] Following intravenous administration, whole blood samples were collected at predetermined time points via cardiac puncture (n=3 mice per time point). Blood samples were centrifuged to obtain plasma and subsequently stored at […] or lower pending analysis. Additionally, at each time point, kidney, liver, small intestine, brain, heart, and tumor were harvested by removing entire specimen from surrounding tissues (only a portion of liver and small intestine were removed). After removal, tissues were rinsed with normal saline solution (contents of small intestine were emptied) and blotted dry with clean adsorptive tissue. Once dried, the specimens were weighed and stored at −20° C. or lower pending analysis. […] Pharmacokinetic (PK) parameters were calculated. Mean plasma and tissue concentrations were used to calculate mean PK parameters. Skin and skeletal muscle which were not assessed due to difficulty of homogenization.
# Vehicle for single dose group was 10% ethanol, 5% Tween 80, 85% saline. Vehicle for combination treatment was 5% ethanol, 2.5% Tween 80, 92.5% saline.
# [1] = Brain, Payload 0.4 mg/kg + CTX 16 mg/kg IV
# [2] = Brain, Payload 0.4 mg/kg IV alone
# [3] = Heart, Payload 0.4 mg/kg + CTX 16 mg/kg IV
# [4] = Heart, Payload 0.4 mg/kg IV alone
# [5] = Kidney, Payload 0.4 mg/kg + CTX 16 mg/kg IV
# [6] = Kidney, Payload 0.4 mg/kg IV alone
# [7] = Liver, Payload 0.4 mg/kg + CTX 16 mg/kg IV
# [8] = Liver, Payload 0.4 mg/kg IV alone
# [9] = Payload 0.4 mg/kg + CTX 16 mg/kg IV, 0.083 h
# [10] = Payload 0.4 mg/kg + CTX 16 mg/kg IV, 0.5 h
# [11] = Payload 0.4 mg/kg + CTX 16 mg/kg IV, 1 h
# [12] = Payload 0.4 mg/kg + CTX 16 mg/kg IV, 2 h
# [13] = Payload 0.4 mg/kg + CTX 16 mg/kg IV, 6 h
# [14] = Payload 0.4 mg/kg + CTX 16 mg/kg IV, 24 h
structure (smiles),measurement,setting,value
CCCCNC(=O)Cc1ccccc1SSC(C)(C)CCN1CCN(Cc2ccc(C3OC3C(C)C3CC=CC(=O)NC(Cc4ccc(OC)c(Cl)c4)C(=O)NCC(C)(C)C(=O)NC(CC(C)C)C(=O)O3)cc2)CC1 (stereo not drawn) [Cryptophycin Payload],AUC(0-t) of Cryptophycin Payload,[1],3.69 ng·h/g
same,tmax of Cryptophycin Payload,[1],4.8 min
same,TPI of Cryptophycin Payload,"Brain, Payload 0.4 mg/kg + CTX 16 mg/kg IV, AUC0-2 h tissue/AUC0-2 h plasma",0.0315 mL/g and 0.0315^d mL/g
same,AUC(0-inf) of Cryptophycin Payload,[2],3.57 ng·h/g
same,AUC(0-t) of Cryptophycin Payload,[2],3.02 ng·h/g
same,t1/2 of Cryptophycin Payload,[2],0.941 h
same,tmax of Cryptophycin Payload,[2],4.98 min and 4.8 min
same,TPI of Cryptophycin Payload,"Brain, Payload 0.4 mg/kg IV alone, AUC0-2 h tissue/AUC0-2 h plasma",0.0208 mL/g and 0.0208^d mL/g
same,AUC(0-inf) of Cryptophycin Payload,[3],62.0 ng·h/g
same,AUC(0-t) of Cryptophycin Payload,[3],59.2 ng·h/g
same,t1/2 of Cryptophycin Payload,[3],1.44 h
same,tmax of Cryptophycin Payload,[3],4.8 min
same,TPI of Cryptophycin Payload,"Heart, Payload 0.4 mg/kg + CTX 16 mg/kg IV, AUC0-inf tissue/AUC0-inf plasma",0.481 mL/g
same,AUC(0-inf) of Cryptophycin Payload,[4],38.9 ng·h/g
same,AUC(0-t) of Cryptophycin Payload,[4],36.8 ng·h/g
same,t1/2 of Cryptophycin Payload,[4],1.71 h
same,tmax of Cryptophycin Payload,[4],4.98 min and 4.8 min
same,TPI of Cryptophycin Payload,"Heart, Payload 0.4 mg/kg IV alone, AUC0-inf tissue/AUC0-inf plasma",0.253 mL/g
same,AUC(0-inf) of Cryptophycin Payload,[5],1230 ng·h/g
same,AUC(0-t) of Cryptophycin Payload,[5],1210 ng·h/g
same,t1/2 of Cryptophycin Payload,[5],4.19 h
same,tmax of Cryptophycin Payload,[5],30 min
same,TPI of Cryptophycin Payload,"Kidney, Payload 0.4 mg/kg + CTX 16 mg/kg IV, AUC0-inf tissue/AUC0-inf plasma",9.53 mL/g
same,AUC(0-inf) of Cryptophycin Payload,[6],826 ng·h/g
same,AUC(0-t) of Cryptophycin Payload,[6],804 ng·h/g
same,t1/2 of Cryptophycin Payload,[6],4.70 h
same,tmax of Cryptophycin Payload,[6],4.98 min and 4.8 min
same,TPI of Cryptophycin Payload,"Kidney, Payload 0.4 mg/kg IV alone, AUC0-inf tissue/AUC0-inf plasma",5.36 mL/g
same,AUC(0-t) of Cryptophycin Payload,[7],15.1 ng·h/g
same,tmax of Cryptophycin Payload,[7],60 min
same,TPI of Cryptophycin Payload,"Liver, Payload 0.4 mg/kg + CTX 16 mg/kg IV, AUC0-6 h tissue/AUC0-6 h plasma",0.118 mL/g and 0.118^c mL/g
same,AUC(0-t) of Cryptophycin Payload,[8],9.65 ng·h/g
same,tmax of Cryptophycin Payload,[8],4.98 min and 4.8 min
same,TPI of Cryptophycin Payload,"Liver, Payload 0.4 mg/kg IV alone, AUC0-6 h tissue/AUC0-6 h plasma",0.0631 mL/g and 0.0631^c mL/g
same,"Concentration of Cryptophycin Payload, Brain, Mean",[9],3.97 ng/g
same,"Concentration of Cryptophycin Payload, Heart, Mean",[9],47.3 ng/g
same,"Concentration of Cryptophycin Payload, Kidney, Mean",[9],389 ng/g
same,"Concentration of Cryptophycin Payload, Liver, Mean",[9],3.89 ng/g
same,"Concentration of Cryptophycin Payload, Plasma, Mean",[9],268 ng/mL
same,"Concentration of Cryptophycin Payload, Small Intestine, Mean",[9],19.8 ng/g
same,"Concentration of Cryptophycin Payload, Tumor, Mean",[9],12.5 ng/g
same,"Concentration of Cryptophycin Payload, Brain, Mean",[10],2.09 ng/g
same,"Concentration of Cryptophycin Payload, Heart, Mean",[10],41.3 ng/g
same,"Concentration of Cryptophycin Payload, Kidney, Mean",[10],411 ng/g
same,"Concentration of Cryptophycin Payload, Liver, Mean",[10],7.13 ng/g
same,"Concentration of Cryptophycin Payload, Plasma, Mean",[10],37.9 ng/mL
same,"Concentration of Cryptophycin Payload, Small Intestine, Mean",[10],13.4 ng/g
same,"Concentration of Cryptophycin Payload, Tumor, Mean",[10],10.3 ng/g
same,"Concentration of Cryptophycin Payload, Brain, Mean",[11],2.07 ng/g
same,"Concentration of Cryptophycin Payload, Heart, Mean",[11],18.7 ng/g
same,"Concentration of Cryptophycin Payload, Kidney, Mean",[11],317 ng/g
same,"Concentration of Cryptophycin Payload, Liver, Mean",[11],7.13 ng/g
same,"Concentration of Cryptophycin Payload, Plasma, Mean",[11],43.8 ng/mL
same,"Concentration of Cryptophycin Payload, Small Intestine, Mean",[11],15.5 ng/g
same,"Concentration of Cryptophycin Payload, Tumor, Mean",[11],9.46 ng/g
same,"Concentration of Cryptophycin Payload, Brain, Mean",[12],0.703 ng/g
same,"Concentration of Cryptophycin Payload, Heart, Mean",[12],6.37 ng/g
same,"Concentration of Cryptophycin Payload, Kidney, Mean",[12],179 ng/g
same,"Concentration of Cryptophycin Payload, Liver, Mean",[12],2.13 ng/g
same,"Concentration of Cryptophycin Payload, Plasma, Mean",[12],7.53 ng/mL
same,"Concentration of Cryptophycin Payload, Small Intestine, Mean",[12],5.66 ng/g
same,"Concentration of Cryptophycin Payload, Tumor, Mean",[12],10.1 ng/g
same,"Concentration of Cryptophycin Payload, Brain, Mean",[13],BLQ
same,"Concentration of Cryptophycin Payload, Heart, Mean",[13],1.39 ng/g
same,"Concentration of Cryptophycin Payload, Kidney, Mean",[13],35.9 ng/g
same,"Concentration of Cryptophycin Payload, Liver, Mean",[13],0.632 ng/g
same,"Concentration of Cryptophycin Payload, Plasma, Mean",[13],0.537 ng/mL
same,"Concentration of Cryptophycin Payload, Small Intestine, Mean",[13],0.873 ng/g
same,"Concentration of Cryptophycin Payload, Tumor, Mean",[13],2.80 ng/g
same,"Concentration of Cryptophycin Payload, Brain, Mean",[14],BLQ
same,"Concentration of Cryptophycin Payload, Heart, Mean",[14],BLQ
same,"Concentration of Cryptophycin Payload, Kidney, Mean",[14],3.39 ng/g

# From patent publication US11826399B2, “Chlorotoxin agents and uses thereof” (Eisai Inc., priority 2017, dated 2023)
